Where two headings read alike, the source gives them in different places.
How the values were obtained:
[1] = system: Post-COVID patients; assay: Patient-reported COVID-19-related symptoms, VAS scale, Example 1; type: in vivo, human; settings: for Body Aches (VAS scale) / Breathing difficulties (VAS scale) / Lung pain (VAS scale): 4 g creatine monohydrate per day
Method: (§1) The patient-reported outcomes for COVID-19-related signs and symptoms (e.g., breathing difficulties, lung pain, body aches,) were evaluated with VAS scale Table 3). Fatigue, comprising the conditions of the group general fatigue, physical fatigue, metal fatigue, reduced activity, and reduced motivation, was evaluated with a multidimensional fatigue inventory test (MFI-20 test, Smets E. M. et al., J. Psychosom. Res. 1995, 39(3), 315).

[2] = system: Post-COVID patients; assay: Multidimensional fatigue inventory test (MFI-20), Example 1; type: in vivo, human; settings: 4 g creatine monohydrate per day
Method: as §1
Thus, the higher the score, the higher the respective symptom is experienced by the interviewed patient. As a consequence, the lower the value given, the better is the effect in mitigation of the respective symptom.

[3] = system: Post-COVID patients; assay: Patient-reported symptoms, VAS scale, Example 2; type: in vivo, human; settings: for Breathing difficulties (VAS scale) / Lung malaise (VAS scale) / Lung pain (VAS scale): 4 g creatine monohydrate per day plus breathing exercise
Method: as §1

[4] = system: Post-COVID patients; assay: Side effects, Example 1; type: in vivo, human; settings: 4 g creatine monohydrate per day
Method: The number of participants who were randomly assigned, received intended treatment, and were analyzed for the primary outcome at this time was twelve in total, six in experimental group and six in control group.

[5] = human, in vivo
[6] = system: PCFS patients; assay: Patient-reported symptoms, VAS scale, Example 4; type: in vivo, human; settings: for Body Aches (VAS scale) / Breathing difficulties (VAS scale) / Lung pain (VAS scale): creatine 8 g per day or glucose 3 g per day
Method: The patient-reported outcomes for COVID-19-related signs and symptoms (e.g., breathing difficulties, lung pain, body aches and post viral fatigue) were evaluated with VAS scale (Tables 10 and 11).
The Cohen's effect sizes (d) in the creatine group for all outcomes evaluated and reproduced in Table 12 and FIG. 2. The effects are classified as small (d=0.2), medium (d=0.5, dashed line), and large (d≥0.8). Missing values are due to a statistical limitation in calculating effect sizes when pre and/or post values equal zero. Abbreviations: GF, general fatigue; PF, physical fatigue; RM, reduced motivation; RA, reduced activity; MF, mental fatigue; BOA, body aches; BRD, breathing difficulties; LUP, lung pain; and MAL, malaise.

[7] = system: Post-COVID patients; assay: Time to exhaustion, incremental treadmill test, creatine vs placebo; type: in vivo, human; settings: creatine vs placebo study; for Time to exhaustion: treadmill
Method: (§2) The time to exhaustion of the patients was evaluated by an incremental test until exhaustion on a motorized treadmill. Speed and gradient of the treadmill are increased every third minute, starting at 2.7 km/h (1.7 miles per hour) at a 10% gradient and rising at stage 7 to 9.7 km/h (6 miles per hour) at 22% gradient (Will P. M. and Walter J. D., Am Heart. J., 1999 December, 138, 1033).

[8] = system: Post-COVID patients; assay: Multidimensional fatigue inventory test (MFI-20), Example 2; type: in vivo, human; settings: 4 g creatine monohydrate per day plus breathing exercise
Method: as §1

[9] = normal healthy population after creatine supplementation; cited from earlier work
[10] = system: Post-COVID patients; assay: Time to exhaustion, incremental treadmill test, creatine plus breathing exercise; type: in vivo, human; settings: for Time to exhaustion: treadmill
Method: as §2

[11] = system: Post-COVID patients; assay: Side effects, Example 2; type: in vivo, human; settings: 4 g creatine monohydrate per day plus breathing exercise, 3-month
Source text: The changes in study outcomes during the trial are depicted in Table 5 and 6.

[12] = both, human, in vivo, 3 months
[13] = system: PCFS patients; assay: Fatigue scores, Example 4; type: in vivo, human; set-up: key to General fatigue score / Physical fatigue score / Mental fatigue score / Reduced activity score / Reduced motivation score: MFI-20 multidimensional fatigue inventory subscale scores; settings: for General fatigue score / Mental fatigue score / Physical fatigue score / Reduced activity score / Reduced motivation score: creatine 8 g per day or glucose 3 g per day
Method: as §1, with “315). […]” for “315).”

[14] = creatine group, 8 g per day, 8 weeks

CN(CC(=O)O)C(=N)N.O [Creatine, creatine monohydrate]
Body Aches (VAS scale) ([1]; 3 months): 1.2 | Breathing difficulties (VAS scale) ([1]; 3 months): 0.5 | Lung pain (VAS scale) ([1]; 3 months): 0.5 | Body Aches (VAS scale) ([1]; 6-months): 0.0 | Breathing difficulties (VAS scale) ([1]; 6-months): 0.0 | Lung pain (VAS scale) ([1]; 6-months): 0.0 | Body Aches (VAS scale) ([1]; Baseline): 4.5 | Breathing difficulties (VAS scale) ([1]; Baseline): 2.3 | Lung pain (VAS scale) ([1]; Baseline): 2.3 | Body aches reduced ([1]; after 3 months): 73.3% | Lung pain ([1]; after 3 months): reduced significantly | breathing difficulties (dyspnea) reduced ([1]; after 3 months): 78% | Cohen's effect size (d), body aches ([1]; at 3-month): 1.77 | Cohen's effect size (d), breathing difficulties ([1]; at 3-month): 0.89 | Cohen's effect size (d), body aches ([1]; at 6-month): 3.03 | Cohen's effect size (d), breathing difficulties ([1]; at 6-month): 1.25 | Cohen's effect size (d), lung pain ([1]; at 6-month): 0.99 | General fatigue score ([2]; 3 months): 11.3 | Mental fatigue score ([2]; 3 months): 11.2 | Physical fatigue score ([2]; 3 months): 12.7 | Reduced activity score ([2]; 3 months): 12.0 | Reduced motivation score ([2]; 3 months): 13.0 | General fatigue score ([2]; 6 months): 12.7 | Mental fatigue score ([2]; 6 months): 10.5 | Physical fatigue score ([2]; 6 months): 13.2 | Reduced activity score ([2]; 6 months): 12.5 | Reduced motivation score ([2]; 6 months): 12.5 | General fatigue score ([2]; Baseline): 12.0 | Mental fatigue score ([2]; Baseline): 12.3 | Physical fatigue score ([2]; Baseline): 13.5 | Reduced activity score ([2]; Baseline): 11.5 | Reduced motivation score ([2]; Baseline): 13.0 | Cohen's effect size for lung malaise ([3]; 3-month follow up): 2.97 | Breathing difficulties (VAS scale) ([3]; 3 months): 0.0 | Lung malaise (VAS scale) ([3]; 3 months): 1.0 | Lung pain (VAS scale) ([3]; 3 months): 0.0 | Breathing difficulties (VAS scale) ([3]; Baseline): 1.5 | Lung malaise (VAS scale) ([3]; Baseline): 6.3 | Lung pain (VAS scale) ([3]; Baseline): 0.5 | lung malaise reduced ([3]; creatine plus breathing exercise, 3-month follow up): 84% | side effects [4]: no major side effects | Total creatine, Left paracentral grey matter [5]: 6.7 ± 0.6 mM | Total creatine, Right paracentral grey matter [5]: 6.8 ± 0.4 mM | Cohen's effect size (d), increased brain creatine level in left parietal white matter ([5]; 3 months): 0.92 | Cohen's effect size (d), increased brain creatine level in parietal white matter ([5]; 3 months): 1.99 | Cohen's effect size (d), increased brain creatine level in right frontal white matter ([5]; 3 months): 1.25 | Cohen's effect size (d), increased brain creatine level in right paracentral grey matter ([5]; 3 months): 0.88 | Cohen's effect size (d), increased brain creatine level in right parietal messial grey matter ([5]; 3 months): 1.17 | Cohen's effect size (d), increased brain creatine level in thalamus ([5]; 3 months): 0.82 | Total creatine, Left paracentral grey matter ([5]; 3 months): 7.3 ± 0.9 mM | Total creatine, Right paracentral grey matter ([5]; 3 months): 7.2 ± 0.5 mM | Cohen's effect size (d), increased brain creatine level in left parietal messial grey matter ([5]; 6 months): 0.84 | Cohen's effect size (d), increased brain creatine level in left parietal white matter ([5]; 6 months): 1.17 | Cohen's effect size (d), increased brain creatine level in parietal white matter ([5]; 6 months): 1.74 | Cohen's effect size (d), increased brain creatine level in right frontal white matter ([5]; 6 months): 1.32 | Cohen's effect size (d), increased brain creatine level in right parietal messial grey matter ([5]; 6 months): 1.06 | Total creatine, Left paracentral grey matter ([5]; 6 months): 7.1 ± 0.7 mM | Total creatine, Right paracentral grey matter ([5]; 6 months): 7.0 ± 0.7 mM | Cohen's effect size (d) for reducing body aches ([6]; 8-week follow-up): > 0.80 | Cohen's effect size (d) for reducing breathing difficulties ([6]; 8-week follow-up): > 0.80 | Cohen's effect size (d) for reducing lung malaise ([6]; 8-week follow-up): > 0.80 | Body aches reduced ([6]; after 8 weeks): 71% | Lung pain reduced ([6]; after 8 weeks): 67% | breathing difficulties (dyspnea) reduced ([6]; after 8 weeks): 85% | Body Aches (VAS scale) ([6]; 8 weeks): 0.8 | Breathing difficulties (VAS scale) ([6]; 8 weeks): 0.4 | Lung pain (VAS scale) ([6]; 8 weeks): 0.6 | Body Aches (VAS scale) ([6]; Baseline): 2.8 | Breathing difficulties (VAS scale) ([6]; Baseline): 2.6 | Lung pain (VAS scale) ([6]; Baseline): 1.8 | Cohen's effect (d), Body aches (BOA) [6, 14]: 1.11 | Cohen's effect (d), Lung pain (LUP) [6, 14]: 0.64 | stage achieved in the treadmill test [7]: 6 | time to exhaustion increased ([7]; matches 6-months vs baseline of Table 7): 7.3% | Time to exhaustion ([7]; 3-months): 922 s | Time to exhaustion ([7]; 6-months): 959 s | Time to exhaustion ([7]; Baseline): 894 s | General fatigue score ([8]; 3 months): 12.3 | Mental fatigue score ([8]; 3 months): 11.5 | Physical fatigue score ([8]; 3 months): 12.2 | Reduced activity score ([8]; 3 months): 12.8 | Reduced motivation score ([8]; 3 months): 12.8 | General fatigue score ([8]; Baseline): 11.5 | Mental fatigue score ([8]; Baseline): 11.8 | Physical fatigue score ([8]; Baseline): 12.3 | Reduced activity score ([8]; Baseline): 12.5 | Reduced motivation score ([8]; Baseline): 13.5 | increase of creatine in the brain [9]: ≤ 5% | Cohen's effect size for time to exhaustion ([10]; creatine monohydrate plus breathing exercise): 0.36 | stage reached in the treadmill test ([10]; creatine plus breathing exercise study): 6 | Time to exhaustion ([10]; creatine plus breathing exercise study, 3-months): 921 s | Time to exhaustion ([10]; creatine plus breathing exercise study, Baseline): 867 s | mean time to exhaustion improved ([10]; experimental group, post-administration (3 months)): 54 s | side effects / tolerability [11]: well-tolerated | Cohen's effect size (d) for creatine increment, vastus medialis muscle [12]: 0.77 | General fatigue score ([13]; 8 weeks): 12.0 | Mental fatigue score ([13]; 8 weeks): 12.2 | Physical fatigue score ([13]; 8 weeks): 11.4 | Reduced activity score ([13]; 8 weeks): 12.0 | Reduced motivation score ([13]; 8 weeks): 10.3 | General fatigue score ([13]; Baseline): 12.6 | Mental fatigue score ([13]; Baseline): 13.4 | Physical fatigue score ([13]; Baseline): 12.2 | Reduced activity score ([13]; Baseline): 13.6 | Reduced motivation score ([13]; Baseline): 11.6 | Cohen's effect (d), General Fatigue [13, 14]: 0.44 | Cohen's effect (d), Physical Fatigue (PF) [13, 14]: 0.83

— patent US20250325505A1, “COMPOSITION COMPRISING CREATINE FOR USE IN THE TREATMENT OF BREATHING DIFFICULTIES” (Alzchem Trostberg GmbH, priority 2022, published 2025)
